ChEMBL document CHEMBL4627252, “Synthesis and biological evaluation of bis-N2,N2'-(4-hydroxycoumarin-3-yl)ethylidene]-2,3-dihydroxysuccinodihydrazides” (Bioorg Med Chem Lett, 2020)
Converted amounts (≈) assume the structure as drawn.

Experiments:
[1] = tested on: Trypanosoma brucei brucei; assay: Antitrypanosomal activity against Trypanosoma brucei brucei assessed as inhibition of parasite viability; format: functional, organism-based
[2] = target: Human immunodeficiency virus type 1 protease (Human immunodeficiency virus 1) (UniProt Q72874); assay: Inhibition of HIV-1 protease at 20 uM relative to control
Plasmodium falciparum = assay: Antimalarial activity against Plasmodium falciparum 3D7 infected in human erythrocytes assessed as parasite viability at 20 uM incubated for 48 hrs by parasite LDH release based colorimetric assay relative to control; format: functional
[3] = tested on: Trypanosoma brucei brucei; assay: Antitrypanosomal activity against Trypanosoma brucei brucei assessed as parasite viability at 20 uM relative to control; format: functional
[4] = Cytotoxicity against human HeLa cells assessed as cell viability at 20 uM incubated for 24 hrs by resazurin dye base fluorescence analysis relative to control; format: cell-based; conditions: read-out: Activity
[5] = tested on: Mycobacterium tuberculosis; assay: Antimycobacterial activity against Mycobacterium tuberculosis H37Rv assessed as inhibition of bacterial growth by measuring visual MIC90 measured after 14 days by green fluorescent protein based microplate assay; format: functional; conditions: 336 h
[6] = tested on: Mycobacterium tuberculosis; assay: Antimycobacterial activity against Mycobacterium tuberculosis H37Rv assessed as inhibition of bacterial growth by measuring calculated MIC90 measured after 14 days by green fluorescent protein based microplate assay; format: functional; conditions: 336 h
HeLa = assay: Cytotoxicity against human HeLa cells assessed as inhibition of cell viability incubated for 24 hrs by resazurin dye based fluorescence analysis
[7] = target: Human immunodeficiency virus type 1 integrase (Human immunodeficiency virus 1, UniProt Q7ZJM1); assay: Inhibition of HIV-1 integrase
Sequence of Human immunodeficiency virus type 1 integrase (Q7ZJM1 whole entry): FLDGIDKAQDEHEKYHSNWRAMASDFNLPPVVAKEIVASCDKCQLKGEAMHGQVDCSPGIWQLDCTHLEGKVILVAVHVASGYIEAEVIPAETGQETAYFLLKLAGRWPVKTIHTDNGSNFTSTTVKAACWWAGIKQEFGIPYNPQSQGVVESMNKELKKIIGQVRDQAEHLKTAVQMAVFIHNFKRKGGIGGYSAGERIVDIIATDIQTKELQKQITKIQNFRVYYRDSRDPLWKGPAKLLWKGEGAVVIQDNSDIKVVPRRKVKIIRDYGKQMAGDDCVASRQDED

Question: For `N=C(N)c1ccc(OCCCCCOc2ccc(C(=N)N)cc2)cc1` [PENTAMIDINE], which IC50 [1] is on record?
Answer: Its IC50 is 39 nM.

Question: For `C/C(=N\NC(=O)C(O)C(O)C(=O)N/N=C(\C)c1c(O)c2cc(Cl)ccc2oc1=O)c1c(O)c2cc(Cl)ccc2oc1=O` (racemic), which inhibition [2] is on record?
Answer: Its inhibition is 0%.

Question: What about the Activity (Plasmodium falciparum) of the same molecule?
Answer: The Activity was 93.8%.

Question: And the Activity [3]?
Answer: The Activity was 44.6%.

Question: And the viability at 24 h, 20 µM [4]?
Answer: The viability at 24 h, 20 µM was 100%.

Question: And the MIC90 [5]?
Answer: Its MIC90 is 31.2 µM (≈ 19.4 µg/mL).

Question: What about the MIC90 [6] of the same molecule?
Answer: Its MIC90 is 54.2 µM (≈ 33.6 µg/mL).

Question: Which inhibition [2] does the source give for `C/C(=N\NC(=O)C(O)C(O)C(=O)N/N=C(\C)c1c(O)c2cc(F)ccc2oc1=O)c1c(O)c2cc(F)ccc2oc1=O` (racemic) here?
Answer: The inhibition was 0%.

Question: What about the Activity (Plasmodium falciparum) of the same molecule?
Answer: Its Activity is 92.8%.

Question: What about the Activity [3] of the same molecule?
Answer: Its Activity is 32.8%.

Question: What about the viability at 24 h, 20 µM [4] of the same molecule?
Answer: Its viability at 24 h, 20 µM is 84.6%.

Question: And the MIC90 [5]?
Answer: The MIC90 was > 125 µM.

Question: And the MIC90 [6]?
Answer: The MIC90 was > 125 µM.

Question: For `CC[C@H]1CN2CCc3cc(OC)c(OC)cc3[C@@H]2C[C@@H]1C[C@H]1NCCc2cc(OC)c(OC)cc21` [EMETINE], which IC50 (HeLa) is on record?
Answer: The IC50 was 13 nM.

Question: With `COc1ccc2oc(=O)c(/C(C)=N/NC(=O)C(O)C(O)C(=O)N/N=C(\C)c3c(O)c4cc(OC)ccc4oc3=O)c(O)c2c1` (racemic) as the molecule, how does the inhibition [2] read?
Answer: The inhibition was 0%.

Question: What about the Activity (Plasmodium falciparum) of the same molecule?
Answer: The Activity was 100%.

Question: What about the Activity [3] of the same molecule?
Answer: The Activity was 100%.

Question: And the viability at 24 h, 20 µM [4]?
Answer: The viability at 24 h, 20 µM was 84.6%.

Question: And the MIC90 [5]?
Answer: The MIC90 was > 125 µM.

Question: What about the MIC90 [6] of the same molecule?
Answer: Its MIC90 is > 125 µM.

Question: With `C/C(=N\NC(=O)C(O)C(O)C(=O)N/N=C(\C)c1c(O)c2cc(Br)ccc2oc1=O)c1c(O)c2cc(Br)ccc2oc1=O` (racemic) as the molecule, how does the inhibition [2] read?
Answer: The inhibition was 0%.

Question: And the Activity (Plasmodium falciparum)?
Answer: Its Activity is 100%.

Question: And the Activity [3]?
Answer: The Activity was 100%.

Question: And the viability at 24 h, 20 µM [4]?
Answer: The viability at 24 h, 20 µM was 100%.

Question: And the MIC90 [5]?
Answer: The MIC90 was 15.6 µM (≈ 11.1 µg/mL).

Question: What about the MIC90 [6] of the same molecule?
Answer: Its MIC90 is 18.9 µM (≈ 13.4 µg/mL).

Question: With `CO[C@H]1/C=C/O[C@@]2(C)Oc3c(C)c(O)c4c(O)c(c(/C=N/N5CCN(C)CC5)c(O)c4c3C2=O)NC(=O)/C(C)=C\C=C\[C@H](C)[C@H](O)[C@@H](C)[C@@H](O)[C@@H](C)[C@H](OC(C)=O)[C@@H]1C` [RIFAMPIN] as the molecule, how does the MIC90 [5] read?
Answer: The MIC90 was 0.019 µM (≈ 0.0156 µg/mL).

Question: And the MIC90 [6]?
Answer: Its MIC90 is 0.007 µM (≈ 0.00576 µg/mL).

Question: Which inhibition [2] does the source give for `C/C(=N\NC(=O)C(O)C(O)C(=O)N/N=C(\C)c1c(O)c2cc(C)ccc2oc1=O)c1c(O)c2cc(C)ccc2oc1=O` (racemic) here?
Answer: Its inhibition is 8.3%.

Question: What about the Activity (Plasmodium falciparum) of the same molecule?
Answer: The Activity was 100%.

Question: What about the Activity [3] of the same molecule?
Answer: Its Activity is 100%.

Question: And the viability at 24 h, 20 µM [4]?
Answer: Its viability at 24 h, 20 µM is 85.3%.

Question: What about the MIC90 [5] of the same molecule?
Answer: Its MIC90 is > 125 µM.

Question: What about the MIC90 [6] of the same molecule?
Answer: Its MIC90 is > 125 µM.

Question: With `C/C(=N\NC(=O)C(O)C(O)C(=O)N/N=C(\C)c1c(O)c2c(ccc3ccccc32)oc1=O)c1c(O)c2c(ccc3ccccc32)oc1=O` (racemic) as the molecule, how does the inhibition [2] read?
Answer: The inhibition was 0%.

Question: What about the Activity (Plasmodium falciparum) of the same molecule?
Answer: Its Activity is 100%.

Question: What about the Activity [3] of the same molecule?
Answer: The Activity was 100%.

Question: And the viability at 24 h, 20 µM [4]?
Answer: The viability at 24 h, 20 µM was 98.1%.

Question: And the MIC90 [5]?
Answer: Its MIC90 is 31.2 µM (≈ 20.3 µg/mL).

Question: What about the MIC90 [6] of the same molecule?
Answer: Its MIC90 is 29.5 µM (≈ 19.2 µg/mL).

Question: Which results are given for `C/C(=N\NC(=O)C(O)C(O)C(=O)N/N=C(\C)c1c(O)c2ccccc2oc1=O)c1c(O)c2ccccc2oc1=O` (racemic)?
Answer: inhibition [2]: 0%; Activity (Plasmodium falciparum): 90.7%; Activity [3]: 42.7%; viability at 24 h, 20 µM [4]: 78.4%; MIC90 [5]: > 125 µM; MIC90 [6]: > 125 µM; IC50 [7]: 3500 nM
